The target of one series is T1, COX-1 (Ovis aries, UniProt P05979).
T1 construct: purchased Cayman Chemical #560101
T1 sequence (P05979 25-600): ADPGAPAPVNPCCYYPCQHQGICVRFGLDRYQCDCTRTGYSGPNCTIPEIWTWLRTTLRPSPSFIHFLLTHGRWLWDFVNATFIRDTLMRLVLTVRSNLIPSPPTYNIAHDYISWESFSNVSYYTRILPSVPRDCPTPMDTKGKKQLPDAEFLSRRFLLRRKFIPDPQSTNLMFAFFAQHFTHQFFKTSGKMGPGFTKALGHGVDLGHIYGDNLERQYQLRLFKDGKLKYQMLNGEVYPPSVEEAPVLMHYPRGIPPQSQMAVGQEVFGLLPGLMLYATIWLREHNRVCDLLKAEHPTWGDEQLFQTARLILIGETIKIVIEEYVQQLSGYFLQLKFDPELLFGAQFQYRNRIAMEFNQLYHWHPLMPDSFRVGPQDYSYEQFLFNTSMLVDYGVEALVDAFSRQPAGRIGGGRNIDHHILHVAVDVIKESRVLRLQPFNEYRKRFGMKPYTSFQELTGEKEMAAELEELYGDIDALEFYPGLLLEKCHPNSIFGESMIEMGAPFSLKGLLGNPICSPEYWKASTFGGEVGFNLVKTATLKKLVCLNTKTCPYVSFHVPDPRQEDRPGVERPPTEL
Description: COX-1 inhibition, prostaglandin (PGF2α) enzyme immunoassay. In kind it is biochemical. An excerpt:
(§1) In some cases, screening in the latter method (measuring prostaglandin production) is accomplished using an enzyme immunoassay (EIA) where COX systems include COX-1 or COX-2, an EIA reaction buffer, Heme, and either a control solution, such as NaOH, for control systems or inhibitor solutions of the nitroxyl donor in NaOH having a range of progressively increasing concentrations of the nitroxyl-donating compound. These systems are reacted with arachidonic acid for a period typically of about five to ten minutes. The COX reactions are stopped in each system, for example, by the addition of hydrochloric acid (HCl).
(§2) The relative amounts prostaglandins, such as PGF2α, in each system are measured with an EIA kit. The EIA measures the amounts of prostaglandins in the systems based on binding to an assay antibody. Binding is determined by absorbance, for example, absorbance at 405 nm, with a plate reader, such as a Perkin Elmer plate reader. High binding results in low absorbance indicating low inhibition, while low binding results in high absorbance indicating high inhibition.
(§3) Once the inhibitor and control systems are prepared they are diluted in the EIA buffer at various dilution ratios, such as 1:1000, 1:2000, and 1:4000 and added to wells of the plate. The plate also contains prostaglandin (PG) standard systems, non-specific binding (NSB) systems, background COX systems, and zero binding (B0) systems, which are used to calibrate the EIA. PG standard systems are prepared at various progressively increasing concentrations of PG, for example 15.6, 31.3, 62.5, 125, 250, 500, 1000, and 2000 PG/mL. Background COX systems contain either boiled COX-1 or COX-2 diluted in EIA reaction buffer. NSB, and B0 systems include only the EIA buffer. Prostaglandin screening acetylcholinase tracer (reconstituted in the EIA buffer) is added to each system. Prostaglandin screening antiserum (reconstituted in the EIA buffer) is added to each system other than the NSB system. Typically, the plate is incubated from several hours to a day, such as from 4 to 24 hours at room temperature (about 22° C.). Ellman's reagent is added to each system in each well and the plate is agitated, such as on an orbital shaker, and protected from light, for example by covering with aluminum foil, for about an hour. The plate is then read on a plate reader, such as a Perkin Elmer plate reader.
(§4) An average value for the absorbance of the NSB systems is determined and this absorbance is used to correct the reading of other systems for NSB (by subtracting the average NSB absorbance). An average value for the absorbance of background COX also is determined and absorbance is later used to correct other systems for background COX levels.
(§5) An average value for B0 is obtained and NSB corrected. Average values for absorbance of each PG standard system are obtained and NSB corrected. The percentage of prostanoid binding is determined by dividing the average NSB corrected absorbance (binding (B)) for each PG standard system by the average NSB corrected absorbance for B0 systems (percentage equals B/B0*100). A standard curve is prepared with % B/B0 on the y axis and the prostaglandin concentration (PG/mL) on the x axis. Then the average % B/B0 for the background, control, and inhibitor systems are determined for each concentration tested. The PG concentration for each of these systems is determined by finding the point on the standard curve that corresponds to the determined % B/B0, determining the corresponding PG concentration on the x axis, and multiplying this concentration by the dilution factor used to prepare the system. To correct for background COX the PG concentration of the background COX-1 or COX-2 systems are subtracted from the COX-1 and COX-2 inhibitor and control systems, respectively. The percentage of inhibition is determined dividing the PG concentration for inhibitor systems by the PG concentration for control systems and multiplying by 100. […]

The nature of the next series: Nitroxyl donation pH. In kind it is physicochemical. An excerpt:
“Nitroxyl donation pH” is the pH at which and above which a nitroxyl-donating compounds donates nitroxyl.
Further, compounds are easily tested for nitroxyl donation with routine experiments. Although it is impractical to directly measure whether nitroxyl is donated, several tests are accepted for determining whether a compound donates nitroxyl. For example, the compound of interest can be placed in solution, for example in water, in a sealed container. After sufficient time for disassociation has elapsed, such as from several minutes to several hours, the headspace gas is withdrawn and analyzed to determine its composition, such as by gas chromatography and/or mass spectroscopy. […] Nitroxyl donation also can be detected by exposing the target donor to metmyoglobin (Mb^3+). Nitroxyl reacts with Mb^3+ to form an Mb^2+—NO complex, which can be detected by changes in the ultraviolet/visible spectrum or by Electron Paramagnetic Resonance (EPR). […]
Testing for nitroxyl donation in some cases is performed at a range of pHs to determine the nitroxyl donation pH of the nitroxyl-donating compound. […] After the lowest pH at which nitroxyl donation occurs in a first set of tests is found, additional tests can be performed with narrower ranges of pH around the first determined nitroxyl donation pH to obtain a more specific nitroxyl donation pH. […]

In a further series the target is T2, COX-2 (Ovis aries, UniProt P79208).
T2 construct: purchased Cayman Chemical #560101
T2 sequence (P79208 17-603): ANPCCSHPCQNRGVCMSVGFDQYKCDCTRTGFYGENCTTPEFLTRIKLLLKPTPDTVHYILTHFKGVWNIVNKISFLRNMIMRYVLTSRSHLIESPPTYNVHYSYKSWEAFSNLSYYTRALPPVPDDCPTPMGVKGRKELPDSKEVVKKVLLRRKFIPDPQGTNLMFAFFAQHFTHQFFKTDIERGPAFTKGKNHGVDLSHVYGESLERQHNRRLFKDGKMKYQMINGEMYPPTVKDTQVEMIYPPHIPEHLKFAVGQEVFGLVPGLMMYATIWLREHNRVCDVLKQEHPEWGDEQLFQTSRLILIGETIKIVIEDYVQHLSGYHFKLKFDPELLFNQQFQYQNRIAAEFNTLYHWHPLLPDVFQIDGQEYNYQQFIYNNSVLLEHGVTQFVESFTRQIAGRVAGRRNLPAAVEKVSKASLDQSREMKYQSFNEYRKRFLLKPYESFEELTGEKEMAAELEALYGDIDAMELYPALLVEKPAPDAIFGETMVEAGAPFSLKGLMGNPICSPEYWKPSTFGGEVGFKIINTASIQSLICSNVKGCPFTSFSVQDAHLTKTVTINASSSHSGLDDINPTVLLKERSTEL
As to the kind of experiment: COX-2 inhibition, prostaglandin (PGF2α) enzyme immunoassay. In kind it is biochemical.
Text: as §1, §2, §3, §4, §5

Where [1] appears, read: Example 1, Angeli's salt concentration 0.001 μM, 1:2000 dilution.
The mark [2] stands for this setting: Example 1, Angeli's salt concentration 1.0 μM, 1:2000 dilution.
Setting [3] is: Example 1, Angeli's salt concentration 10.0 μM, 1:2000 dilution.
[4] abbreviates: Example 1, Angeli's salt concentration 500.0 μM, 1:2000 dilution.
The mark [5] stands for this setting: Example 2, Angeli's salt concentration 0.100 μM, data below about 50 μM called unreliable.
Where [6] appears, read: Example 2, Angeli's salt concentration 100.0 μM.
Setting [7] is: Example 2, Angeli's salt concentration 500.0 μM.
Where [8] appears, read: Example 2, Angeli's salt concentration 1000.0 μM.
The mark [9] stands for this setting: Example 3, nitroxyl donor concentration 25 μM.
Where [10] appears, read: Example 3, nitroxyl donor concentration 50 μM.
[11] abbreviates: Example 3, nitroxyl donor concentration 75 μM.
The mark [12] stands for this setting: Example 3, nitroxyl donor concentration 100 μM.
Setting [13] is: Example 3, nitroxyl donor concentration 1000 μM.

Several values for one entry are separate records, joined by “and”; a condition that tells them apart may be missing. Identical values can stand only once. Bounds are passed on as bounds.

The IC50 is the concentration that inhibits the measured activity by half. Turning to `[Na+].[Na+].[O-][N+]([O-])=NO` [Angeli's salt, Na2ON(O)NO], the IC50 is around 600 µM against COX-1 (Example 1, read from FIG. 1); 200 to 250 µM on COX-1 (Example 2, reasonable estimate); around 50 µM on COX-2 (Example 1, read from FIG. 1); around 50 µM at COX-2 (Example 2, reasonable estimate). Also, the “Percentage COX-1 Inhibition” value worked out at 0.0% at COX-1 (setting [1]); 0.0% on COX-1 (setting [2]); 0.0% at COX-1 (setting [3]); 18.3% on COX-1 (Example 1, Angeli's salt concentration 100.0 μM, 1:2000 dilution); 40.2% on COX-1 (setting [4]); 95.4% on COX-1 (Example 1, Angeli's salt concentration 1000.0 μM, 1:2000 dilution). The “Percentage COX-1 Inhibition” value at COX-1 (Example 2, Angeli's salt concentration 0.001 μM, data below about 50 μM called unreliable) was determined as 97.5%; at COX-1 (setting [5]), 24.7%; at COX-1 (Example 2, Angeli's salt concentration 1.0 μM, data below about 50 μM called unreliable) it was 57.5%; at COX-1 (Example 2, Angeli's salt concentration 50.0 μM), 16.4%; at COX-1 (setting [6]), 45.7%; on COX-1 (setting [7]), 62.5%. Further, the “Percentage COX-1 Inhibition” value at COX-1 (setting [8]) came out at 68.6%. Further, the COX-1 activity inhibited at COX-1 (Example 1, concentrations from about 50 μM to about 100 μM) is listed as at most 19%. Also, in the series “Nitroxyl donation pH”, the “nitroxyl donation pH (pH at which and above which nitroxyl is donated)” value is reported as “about 3”. Besides, on COX-2 (Example 1), the “COX-1/COX-2 IC50 ratio” value is recorded as “about 0.08”. In addition, the “Percentage COX-2 inhibition” value at COX-2 (setting [1]) is 0.0%; at COX-2 (setting [2]), 34.6%; on COX-2 (setting [3]), 28.8%; at COX-2 (Example 1, Angeli's salt concentration 100.0 μM, 1:2000 dilution, 100 µM), 100% and 99.2%; on COX-2 (setting [4]), 86.4%; at COX-2 (setting [5]) it was 98.9%. Moreover, the “Percentage COX-2 inhibition” value was found to be 98% on COX-2 (setting [6]); 105.7% at COX-2 (setting [7]); 106% on COX-2 (setting [8]); 5.4% on COX-2 (setting [9]); 13.7% on COX-2 (setting [10]); 49.2% at COX-2 (setting [11]). In addition, the entries for the “Percentage COX-2 inhibition” value at COX-2 (setting [12]) and on COX-2 (setting [13]) were 59.9% and 60.4%, respectively. For the same compound, the “COX-2/COX-1 IC50 ratio” value at COX-2 (one particular example (detailed description)) is reported as “about 0.08”.

On to `CC(C)N[N+]([O-])=N[O-].[Na+]` [IPA/NO, Na(CH3)2C(H)N(H)N(O)NO], for which, in the series “Nitroxyl donation pH”, the “nitroxyl donation pH (pH at which and above which nitroxyl is donated)” value is on record as “about 5.5”. In addition, the “COX-2 inhibition, overall trend compared to Angeli's salt” value at COX-2 (Example 3, 25 to 1000 μM) is “more effective inhibitor of COX-2 than Angeli's salt”. For the same compound, the “Percentage COX-2 inhibition” value on COX-2 (setting [9]) stood at 6.7%; on COX-2 (setting [10]) it was 59.5%; at COX-2 (setting [11]) it was 46.4%; at COX-2 (setting [12]), 62.2%; at COX-2 (setting [13]), 86.8%.

The values are drawn from US20050009789A1, “Cyclooxygenase inhibition with nitroxyl” (The Government of the USA as represented by the Secretary …, priority 2003, published 2005).
